Where “and” joins values, the source holds several entries; their conditions need not be identical. Identical values can stand only once. Entries after “also recorded” stand apart in the source; their conditions may differ.
Assays:
[1] = system: [^3 H]DA release from rat striatal slices; test: [3H]DA release assay: compound-evoked (intrinsic agonist) release; format: cell-based; parameters: key to total [3H]overflow (effect on [3H]DA release): summed increase in fractional release (sample tritium / tissue tritium); settings: for total [3H]overflow (effect on [3H]DA release): mean ± S.E.M.; for total [3H]overflow (effect on [3H]DA release) / effect on [3H]DA release / intrinsic agonist activity (in words): rat striatal slices
Description: (§1) Biological Methods. Male Spragua-Dawley rats (150-200 g) were obtained from Harlan Laboratories (Indianapolis, Ind.) and were housed two per cage with free access to food and water in the Division of Lab Animal Resources at the College of Pharmacy at the University of Kentucky. Experimental protocols involving the animals were approved by the Institutional Animal Care and Use Committee at the University of Kentucky.
(§2) [^3 H]DA Release Assay. Rat striatal slices (500 μm thickness, 6-8 mg wet weight) were obtained as previously described (Dwoskin and Zahniser, 1986). Slices were incubated for 30 min in Krebs' buffer ([…]; 118 NaCl, 4.7 KCl, 1.2 MgCl2, 1.0 NaH2 PO4, 1.3 CaCl2, […], 11.1 glucose, 25 NaHCO3, 0.11 L-ascorbic acid nd 0.004 disodium EDTA; pH 7.4 and saturated with 95% O2 /5% CO2) in a metabolic shaker at 34°. Slices were rinsed with 15 ml of fresh buffer and incubated for an additional 30 min in fresh buffer containing 0.1 μM [^3 H]dopamine (6 slices/3 ml). Subsequently, slices were rinsed with 15 ml of fresh buffer and transferred to a glass superfusion chamber. Slices were superfused (1.0 ml/min) for 60 min with Krebs' buffer containing nomifensine (10 μm) and pargyline (10 μm) and maintained at 34° C., pH 7.4 with continual aeration (95% O2 /5% CO2). Two 5-min samples (5 ml) were collected to determine basal outflow of [^3 H]DA. N-Substituted nicotine analogues were added to the superfusion buffer after the collection of the second sample and remained in the buffer until 12 consecutive 5-min samples were collected. […] At the end of the experiment each slice was solubilized and the [^3 H] content of the tissue determined.
(§3) Radioactivity in the superfusate and tissue samples was determined by liquid scintillation spectroscopy. Fractional release for each superfusate sample was calculated by dividing the total tritium collected in each sample by the total tritium present in the tissue at the time of sample collection. Basal [^3 H]out flow was calculated from the average of the tritium collected in the two 5-min samples just before addition of the N-substituted nicotine analogue. The sums of the increase in collected tritium resulting from either exposure to the test compound or exposure to nicotine in the absence and presence of the test compound equaled total [^3 H]overflow. [^3 H]overflow was calculated by subtracting the [^3 H]outflow during an equivalent period of prestimulation from the values in samples collected during and after drug exposure. Inasmuch as the radiolabelled compounds were not separated and identified, the tritium collected in superfusate is referred to as either [^3 H]outflow or [^3 H]overflow, rather than as [^3 H]DA. [^3 H]Overflow primarily represents [^3 H]DA in the presence of nomifensine and pargyline in the superfusion buffer (Zumstein et al. 1981).

[2] = system: S(-)nicotine (10 μM)-evoked [^3 H]DA release from rat striatal slices; format: cell-based
Description: as §1, §2, §3
In these experiments, the striatal slices were superfused for 60 min with various concentrations of the analogues prior to nicotine (10 μM) exposure. Antagonist activity was evaluated by comparing the nicotine-evoked [^3 H]overflow in the absence and presence of the analogues. […] The relative order of potency of the classical and pyridine-N substituted nicotine analogues for inhibition of nicotine-evoked [^3 H]DA release from rat striatal slices is illustrated in FIG. 2 by a comparison of their IC50 values.
FIG. 2. IC50 values for N-substituted analogues of nicotine, nornicotine, and cotinine to inhibit nicotine-evoked [^3 H]DA release from rat striatal slices. Inhibition produced by the classical nicotinic inhibitors, mecamylamine (MEC) and DHBE was also determined. Slices were superfused with inhibitor for 60 min […] co-superfusion with 10 μM nicotine. Inhibition was determined by comparing [^3 H]DA release in the absence and presence of various concentrations of inhibitor. IC50 values were determined using the Logit-log plot (pseudo-Hill plot). […] IC50 for each animal was determined as the intercept of the linear regression.

[3] = Rattus norvegicus, read-out: evoked [3H]DA release relative to S(-)nicotine

C=CCN1CCCC1c1ccc[n+](CC=C)c1 (racemic) [(±)DNANI, (±)di-N-allyl nicotinium iodide]
total [3H]overflow (effect on [3H]DA release) ([1]; Table 3, 1 μM): 0.02 ± 0.01
total [3H]overflow (effect on [3H]DA release) ([1]; Table 3, 10 μM): 0.08 ± 0.04
total [3H]overflow (effect on [3H]DA release) ([1]; Table 3, 100 μM): 0.00 ± 0.00
nicotinic antagonist activity / inhibition of nicotine-evoked [3H]DA release (in words) [2]: did not exhibit significant nicotinic antagonist activity over the concentration range tested; also recorded: relatively weak antagonist activity compared to the N-allyl nicotine analogue (NANI)
relative order of potency for inhibition of nicotine-evoked [3H]DA release (comparison of IC50 values) [2]: (±)di-N-allyl nicotinium iodide (DNANI)=(±)N-methyl nornicotinium iodide (NMNNI)=NMNI
total [3H]overflow during cosuperfusion with 10 μM nicotine [2]: 2.58 ± 0.54 and 1.85 ± 0.25 and 1.66 ± 0.36

C[n+]1cccc(C2CCCN2)c1 (racemic) [(±)NMNNI, (±)N-methyl nornicotinium iodide]
total [3H]overflow (effect on [3H]DA release) ([1]; Table 3, 1 μM): 0.17 ± 0.11
total [3H]overflow (effect on [3H]DA release) ([1]; Table 3, 10 μM): 0.01 ± 0.01
total [3H]overflow (effect on [3H]DA release) ([1]; Table 3, 100 μM): 2.60 ± 0.38
effect on [3H]DA release / intrinsic agonist activity (in words) ([1]; 1-100 μM): evoked [^3 H]DA release and thus, possess intrinsic agonist activity at this concentration
nicotinic antagonist activity / inhibition of nicotine-evoked [3H]DA release (in words) [2]: did not exhibit significant nicotinic antagonist activity over the concentration range tested
relative order of potency for inhibition of nicotine-evoked [3H]DA release (comparison of IC50 values) [2]: (±)di-N-allyl nicotinium iodide (DNANI)=(±)N-methyl nornicotinium iodide (NMNNI)=NMNI
total [3H]overflow during cosuperfusion with 10 μM nicotine [2]: 2.22 ± 1.26 and 3.53 ± 0.85

c1cncc([C@@H]2CCCN2)c1 (racemic) [(±)nornicotine, racemic nornicotine, reference compound]
Emax [1, 3]: ~80%
Emax at 1 µM [1, 3]: 50%
total [3H]overflow (effect on [3H]DA release) ([1]; Table 2, 1 μM): 1.40 ± 0.24
total [3H]overflow (effect on [3H]DA release) ([1]; Table 2, 10 μM): 2.60 ± 0.38
total [3H]overflow (effect on [3H]DA release) ([1]; Table 2, 100 μM): 4.20 ± 0.34
effect on [3H]DA release / intrinsic agonist activity (in words) ([1]; 1-100 μM as stated, listed as Racemic nornicotine): concentration-dependent increase in [^3 H]DA release
effect on [3H]DA release / intrinsic agonist activity (in words) ([1]; 1-100 μM as stated, listed as nornicotine): less potent in producing this effect

CO[C@H]1CC=C2CCN3CCC4=C(CC(=O)OC4)[C@]23C1 [DHBE, dihydro-β-erythroidine, reference compound]
total [3H]overflow (effect on [3H]DA release) ([1]; Table 3, 1 μM): 0.02 ± 0.02
total [3H]overflow (effect on [3H]DA release) ([1]; Table 3, 10 μM): 0.36 ± 0.22
total [3H]overflow (effect on [3H]DA release) ([1]; Table 3, 100 μM): 2.01 ± 0.28
effect on [3H]DA release / intrinsic agonist activity (in words) ([1]; 1-100 μM): None of the compounds examined, including DHBE and mecamylmine, had any significant effect on [^3 H]DA release in the concentration range of 1-10 μM; also recorded: also evoked [^3 H]DA release; also recorded: evoked [^3 H]DA release at the highest concentration examined
nicotinic antagonist activity / inhibition of nicotine-evoked [3H]DA release (in words) [2]: inhibited but did not completely block nicotine's effect
relative order of potency for inhibition of nicotine-evoked [3H]DA release (comparison of IC50 values) [2]: DHBE=MEC>>NBNB

CNC1(C)C2CCC(C2)C1(C)C (stereo not shown) [MEC, mecamylamine, reference compound]
total [3H]overflow (effect on [3H]DA release) ([1]; Table 3, 1 μM): 0.00 ± 0.00
total [3H]overflow (effect on [3H]DA release) ([1]; Table 3, 10 μM): 0.00 ± 0.00
total [3H]overflow (effect on [3H]DA release) ([1]; Table 3, 100 μM): 0.00 ± 0.00
effect on [3H]DA release / intrinsic agonist activity (in words) ([1]; 1-100 μM): None of the compounds examined, including DHBE and mecamylmine, had any significant effect on [^3 H]DA release in the concentration range of 1-10 μM
nicotinic antagonist activity / inhibition of nicotine-evoked [3H]DA release (in words) [2]: inhibited but did not completely block nicotine's effect
relative order of potency for inhibition of nicotine-evoked [3H]DA release (comparison of IC50 values) [2]: DHBE=MEC>>NBNB

CN1CCC[C@H]1c1ccc[n+](Cc2ccccc2)c1 [NBNB, S-N-benzyl nicotinium bromide]
total [3H]overflow (effect on [3H]DA release) ([1]; Table 3, 1 μM): 0.21 ± 0.12
total [3H]overflow (effect on [3H]DA release) ([1]; Table 3, 10 μM): 0.28 ± 0.12
total [3H]overflow (effect on [3H]DA release) ([1]; Table 3, 100 μM): 6.04 ± 0.97
effect on [3H]DA release / intrinsic agonist activity (in words) ([1]; 1-100 μM): evoked [^3 H]DA release and thus, possess intrinsic agonist activity at this concentration
nicotinic antagonist activity / inhibition of nicotine-evoked [3H]DA release (in words) [2]: Significant antagonist activity; also recorded: significantly lower potency and efficacy; also recorded: possessing antagonist activity; also recorded: preferred nicotinic receptor antagonist activity
relative order of potency for inhibition of nicotine-evoked [3H]DA release (comparison of IC50 values) [2]: NBNB=NPNI=NnNBI=NANI>NHENI
total [3H]overflow during cosuperfusion with 10 μM nicotine [2]: 1.50 ± 0.55 and 1.27 ± 0.35

CN1CCC[C@H]1c1ccc[n+](CCO)c1 [NHENI, S-N-hydroxyethyl nicotinium iodide]
total [3H]overflow (effect on [3H]DA release) ([1]; Table 3, 1 μM): 0.00 ± 0.00
total [3H]overflow (effect on [3H]DA release) ([1]; Table 3, 10 μM): 0.00 ± 0.00
total [3H]overflow (effect on [3H]DA release) ([1]; Table 3, 100 μM): 0.08 ± 0.04
nicotinic antagonist activity / inhibition of nicotine-evoked [3H]DA release (in words) [2]: Significant antagonist activity; also recorded: preferred nicotinic receptor antagonist activity
relative order of potency for inhibition of nicotine-evoked [3H]DA release (comparison of IC50 values) [2]: NHENI>>>(±)di-N-allyl nicotinium iodide (DNANI)

CN1C(=O)CC[C@H]1c1ccc[n+](C)c1 [NMCI, S-N-methylcotininium iodide]
total [3H]overflow (effect on [3H]DA release) ([1]; Table 3, 1 μM): 0.00 ± 0.00
total [3H]overflow (effect on [3H]DA release) ([1]; Table 3, 10 μM): 0.01 ± 0.01
total [3H]overflow (effect on [3H]DA release) ([1]; Table 3, 100 μM): 0.02 ± 0.01
nicotinic antagonist activity / inhibition of nicotine-evoked [3H]DA release (in words) [2]: did not exhibit significant nicotinic antagonist activity over the concentration range tested; also recorded: devoid of antagonist activity
relative order of potency for inhibition of nicotine-evoked [3H]DA release (comparison of IC50 values) [2]: NMNI=S-N-methylcotininium iodide (NMCI)=S-N'-methyl nicotinium iodide (PIPNMN)
total [3H]overflow during cosuperfusion with 10 μM nicotine [2]: 3.11 ± 1.32 and 3.11 ± 1.20 and 3.75 ± 1.66

CN1CCC[C@H]1c1ccc[n+](C)c1 [NMNI]
total [3H]overflow (effect on [3H]DA release) ([1]; Table 3, 1 μM): 0.13 ± 0.11
total [3H]overflow (effect on [3H]DA release) ([1]; Table 3, 10 μM): 0.17 ± 0.10
total [3H]overflow (effect on [3H]DA release) ([1]; Table 3, 100 μM): 0.08 ± 0.06
nicotinic antagonist activity / inhibition of nicotine-evoked [3H]DA release (in words) [2]: did not exhibit significant nicotinic antagonist activity over the concentration range tested; also recorded: no antagonistic activity; also recorded: devoid of antagonist activity
relative order of potency for inhibition of nicotine-evoked [3H]DA release (comparison of IC50 values) [2]: NMNI=S-N-methylcotininium iodide (NMCI)=S-N'-methyl nicotinium iodide (PIPNMN)

CN1C(=O)CC[C@H]1c1cccnc1 [S(-)cotinine, reference compound]
Emax [1, 3]: 35%
total [3H]overflow (effect on [3H]DA release) ([1]; Table 2, 1 μM): 0 ± 0
total [3H]overflow (effect on [3H]DA release) ([1]; Table 2, 10 μM): 1.14 ± 0.36
total [3H]overflow (effect on [3H]DA release) ([1]; Table 2, 100 μM): 2.06 ± 0.35
effect on [3H]DA release / intrinsic agonist activity (in words) ([1]; 1-100 μM as stated, listed as Cotinine): no effect at 1 μM
effect on [3H]DA release / intrinsic agonist activity (in words) ([1]; 1-100 μM as stated, listed as S(-)Cotinine): little effect even at high concentrations in the DA release assay
